Experimental data reported in US20020137929A1, “1 - (3-heterocyclylphenyl) isothiourea, -isourea, -guanidine and -amidine herbicidal agents” (Intellectual Property Department, BASF Aktiengesellschaft, priority 1998, published 2002).

What was measured:
[1] = tested on: CHEAL (Lambsquarters, Common); test: Preemergence herbicidal evaluation; format: in vivo, Chenopodium album; details: rated 4-5 weeks after treatment
Procedure, shortened: (§1)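 Seeds were planted in potting soil in cups, then sprayed preemergence with the test compound in aqueous acetone at about 0.0156 to 0.500 kg per hectare. Cups were kept under greenhouse conditions and visually rated 4–5 weeks after treatment on a 0–9 scale against an untreated control.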

CASOB (Sicklepod) = test: Preemergence herbicidal evaluation; format: in vivo, Cassia obtusifolia; details: rated 4-5 weeks after treatment
Procedure, shortened: as §1

GALAP (Galium) = test: Preemergence herbicidal evaluation; format: in vivo, Galium aparine; details: rated 4-5 weeks after treatment
Procedure, shortened: as §1

[2] = tested on: IPOHE (Morningglory, Ivyleaf); test: Postemergence herbicidal evaluation; format: in vivo, Ipomoea hederacea; details: postemergence
Procedure, shortened: (§2)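 Two-week seedlings sprayed postemergence at 40 psi; formulation: 1:1 acetone/water, 0.5% TWEEN 20; application ≈0.0156–0.500 kg/ha. Greenhouse grow-out, then 0–9 visual scoring at 4–5 weeks.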

AMBEL (Ragweed, Common) = test: Postemergence herbicidal evaluation; format: in vivo, Ambrosia artemisifolia; details: postemergence
Procedure, shortened: as §2

ECHCG (Barnyardgrass) [3] = test: Postemergence herbicidal evaluation; format: in vivo, Echinochloa crus-galli; details: postemergence
Procedure, shortened: as §2

[4] = tested on: TRZAWR (Wheat, Winter, cv Riband); test: Postemergence herbicidal evaluation; format: in vivo, Triticum aestivum; details: postemergence
Procedure, shortened: as §2

ABUTH (Velvetleaf) = test: Postemergence herbicidal evaluation; format: in vivo, Abutilon theophrasti; details: postemergence
Procedure, shortened: as §2

[5] = tested on: ECHORC (Watergrass (Calif.)); test: Postemergence weed control under flooded paddy conditions; format: in vivo, Echinochloa oryzoides; details: postemergence weeds, 3-4 weeks after treatment
Procedure, shortened: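 Containers holding 3–5 cm weeds and rice at 1.5–2.5 leaves are flooded to 1.5–3 cm above soil. Compound in 50/50 v/v aqueous/acetone is then added directly to the water, about 0.0313–0.500 kg/ha. Plants are kept in the greenhouse and rated 0–9 visually at 3–4 weeks.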

ECHCG (Barnyardgrass) [6] = test: Preemergence herbicidal evaluation; format: in vivo, Echinochloa crus-galli; details: rated 4-5 weeks after treatment
Procedure, shortened: as §1

ZEAMX (Corn, Field) = test: Preemergence herbicidal evaluation; format: in vivo, Zea mays; details: rated 4-5 weeks after treatment
Procedure, shortened: as §1

[7] = tested on: GLXMAW (Soybean, Williams); test: Postemergence herbicidal evaluation; format: in vivo, Glycine max, (L.) Merr. cv Williams; details: postemergence
Procedure, shortened: as §2

SETVI (Foxtail, Green) = test: Postemergence herbicidal evaluation; format: in vivo, Setaria viridis; details: postemergence
Procedure, shortened: as §2

[8] = tested on: IPOHE (Morningglory, Ivyleaf); test: Preemergence herbicidal evaluation; format: in vivo, Ipomoea hederacea; details: rated 4-5 weeks after treatment
Procedure, shortened: as §1

SMILES: CCOC(=O)CN1C(=O)CO/C1=N/c1cc(-n2c(=O)cc(C(F)(F)F)n(C)c2=O)c(F)cc1Cl [Compound 22, Ethyl 2-{{2-chloro-5-[3,6-dihydro-3-methyl-2,6-dioxo-4-(trifluoromethyl)-1(2H)-pyrimidinyl]-4-fluorophenyl}imino}-4-oxo-3-oxazolidineacetate]
- CHEAL preemergence herbicidal rating ([1]; rate 0.0156 kg/ha): 9.0
- CHEAL preemergence herbicidal rating ([1]; rate 0.0313 kg/ha): 9.0
- CHEAL preemergence herbicidal rating ([1]; rate 0.0625 kg/ha): 9.0
- CHEAL preemergence herbicidal rating ([1]; rate 0.1250 kg/ha): 9.0
- CHEAL preemergence herbicidal rating ([1]; rate 0.2500 kg/ha): 9.0
- CASOB preemergence herbicidal rating (CASOB (Sicklepod); rate 0.0156 kg/ha): 0.0
- CASOB preemergence herbicidal rating (CASOB (Sicklepod); rate 0.0313 kg/ha): 0.0
- CASOB preemergence herbicidal rating (CASOB (Sicklepod); rate 0.0625 kg/ha): 0.0
- CASOB preemergence herbicidal rating (CASOB (Sicklepod); rate 0.1250 kg/ha): 3.0
- CASOB preemergence herbicidal rating (CASOB (Sicklepod); rate 0.2500 kg/ha): 9.0
- GALAP preemergence herbicidal rating (GALAP (Galium); rate 0.0156 kg/ha): 0.0
- GALAP preemergence herbicidal rating (GALAP (Galium); rate 0.0313 kg/ha): 0.0
- GALAP preemergence herbicidal rating (GALAP (Galium); rate 0.0625 kg/ha): 0.0
- GALAP preemergence herbicidal rating (GALAP (Galium); rate 0.1250 kg/ha): 0.0
- GALAP preemergence herbicidal rating (GALAP (Galium); rate 0.2500 kg/ha): 9.0
- IPOHE herbicidal rating ([2]; rate 0.0158 kg/ha): 9.0
- IPOHE herbicidal rating ([2]; rate 0.0315 kg/ha): 9.0
- IPOHE herbicidal rating ([2]; rate 0.0630 kg/ha): 9.0
- AMBEL herbicidal rating (AMBEL (Ragweed, Common); rate 0.0158 kg/ha): 6.0
- AMBEL herbicidal rating (AMBEL (Ragweed, Common); rate 0.0315 kg/ha): 6.0
- AMBEL herbicidal rating (AMBEL (Ragweed, Common); rate 0.0630 kg/ha): 7.0
- ECHCG herbicidal rating (ECHCG (Barnyardgrass) [3]; rate 0.0158 kg/ha): 2.0
- ECHCG herbicidal rating (ECHCG (Barnyardgrass) [3]; rate 0.0315 kg/ha): 2.0
- ECHCG herbicidal rating (ECHCG (Barnyardgrass) [3]; rate 0.0630 kg/ha): 1.0
- TRZAWR herbicidal rating ([4]; rate 0.0158 kg/ha): 4.0
- TRZAWR herbicidal rating ([4]; rate 0.0315 kg/ha): 3.5
- TRZAWR herbicidal rating ([4]; rate 0.0630 kg/ha): 5.0
- ABUTH herbicidal rating (ABUTH (Velvetleaf); rate 0.0158 kg/ha): 9.0
- ABUTH herbicidal rating (ABUTH (Velvetleaf); rate 0.0315 kg/ha): 9.0
- ABUTH herbicidal rating (ABUTH (Velvetleaf); rate 0.0630 kg/ha): 9.0
- Herbicidal rating ECHORC ([5]; rate 0.1160 kg/ha): 6.0
- Herbicidal rating ECHORC ([5]; rate 0.2310 kg/ha): 9.0
- Herbicidal rating ECHORC ([5]; rate 0.4630 kg/ha): 9.0
- ECHCG preemergence herbicidal rating (ECHCG (Barnyardgrass) [6]; rate 0.0156 kg/ha): 0.0
- ECHCG preemergence herbicidal rating (ECHCG (Barnyardgrass) [6]; rate 0.0313 kg/ha): 0.0
- ECHCG preemergence herbicidal rating (ECHCG (Barnyardgrass) [6]; rate 0.0625 kg/ha): 0.0
- ECHCG preemergence herbicidal rating (ECHCG (Barnyardgrass) [6]; rate 0.1250 kg/ha): 3.0
- ECHCG preemergence herbicidal rating (ECHCG (Barnyardgrass) [6]; rate 0.2500 kg/ha): 9.0
- ZEAMX preemergence herbicidal rating (ZEAMX (Corn, Field); rate 0.0156 kg/ha): 2.0
- ZEAMX preemergence herbicidal rating (ZEAMX (Corn, Field); rate 0.0313 kg/ha): 5.0
- ZEAMX preemergence herbicidal rating (ZEAMX (Corn, Field); rate 0.0625 kg/ha): 7.0
- ZEAMX preemergence herbicidal rating (ZEAMX (Corn, Field); rate 0.1250 kg/ha): 8.0
- ZEAMX preemergence herbicidal rating (ZEAMX (Corn, Field); rate 0.2500 kg/ha): 9.0
- GLXMAW herbicidal rating ([7]; rate 0.0158 kg/ha): 5.5
- GLXMAW herbicidal rating ([7]; rate 0.0315 kg/ha): 6.5
- GLXMAW herbicidal rating ([7]; rate 0.0630 kg/ha): 5.5
- SETVI herbicidal rating (SETVI (Foxtail, Green); rate 0.0158 kg/ha): 3.0
- SETVI herbicidal rating (SETVI (Foxtail, Green); rate 0.0315 kg/ha): 5.0
- SETVI herbicidal rating (SETVI (Foxtail, Green); rate 0.0630 kg/ha): 7.0
- IPOHE preemergence herbicidal rating ([8]; rate 0.0156 kg/ha): 0.0
- IPOHE preemergence herbicidal rating ([8]; rate 0.0313 kg/ha): 2.0
- IPOHE preemergence herbicidal rating ([8]; rate 0.0625 kg/ha): 9.0
- IPOHE preemergence herbicidal rating ([8]; rate 0.1250 kg/ha): 9.0
- IPOHE preemergence herbicidal rating ([8]; rate 0.2500 kg/ha): 9.0
